Consider 18 molecules from paper PMC7808739, “Repurposing existing drugs: identification of SARS-CoV-2 3C-like protease inhibitors” (Journal of Enzyme Inhibition and Medicinal Chemistry, 2021).

Counter-ions that a name gives are not always drawn. Like-named read-outs stand apart in the source and are kept apart here.

This test concerns the target SARS-CoV-2 3CLpro (Severe acute respiratory syndrome coronavirus 2, UniProt P0DTD1). Put plainly: biochemical. It counts as biochemical. Conditions: for SARS-CoV-2 3CLpro inhibitor grade in words: grading by IC50 in the IQF peptide assay.
Where [1] appears, read: IC50, inhibition of SARS-CoV-2 3CLpro activity.
Where [2] appears, read: 0.25 µM protease, 1.25 µM IQF peptide substrate, drugs 0–100 µM preincubated 1 h at 37 °C, then 3 h, N = 3, mean ± SEM, read-out: IC50, inhibition of SARS-CoV-2 3CLpro activity.

A word on the IC50: it is the concentration at which inhibition is half-maximal. As for `CC(=O)Oc1ccc(C(c2ccc(OC(C)=O)cc2)c2ccccn2)cc1` [Bisacodyl], under setting [1], half-maximal inhibition (IC50) was put at 17.5 µM.
Under setting [1], `CC(C)(C)NC(=O)[C@@H]1C[C@@H]2CCCC[C@@H]2CN1C[C@@H](O)[C@H](Cc1ccccc1)NC(=O)[C@H](CC(N)=O)NC(=O)c1ccc2ccccc2n1` [Saquinavir mesylate] displayed an IC50 of 9.92 µM.
As to `CCC(=O)O[C@]1(C(=O)CCl)[C@@H](C)C[C@H]2[C@@H]3CCC4=CC(=O)C=C[C@]4(C)[C@@]3(F)[C@@H](O)C[C@@]21C` [Clobetasol propionate], the IC50 under setting [2] was 18.1 µM.
The molecule `N[C@@H]1C[C@H]1c1ccccc1` [Tranylcypromine hydrochloride] gave an IC50 under setting [1] of 8.64 µM.
For `C=CC[N+]1([C@H]2C[C@H]3[C@@H]4CC[C@H]5C[C@H](O)[C@@H](N6CCOCC6)C[C@]5(C)[C@H]4CC[C@]3(C)[C@H]2OC(C)=O)CCCC1` [Rocuronium bromide], the IC50 under setting [2] was 17.5 µM.
Take `COCC1=C(C(=O)OC(C)OC(=O)OC(C)C)N2C(=O)[C@@H](NC(=O)/C(=N\OC)c3csc(N)n3)[C@H]2SC1` (stereo partly shown) [Cefpodoxime proxetil]: the “SARS-CoV-2 3CLpro inhibitor grade in words” value is listed as “moderate”. The same molecule gave a concentration for half-maximal inhibition (IC50) under setting [1] of 32.4 µM.
As for `O=C(c1ccc(OCCN2CCCCC2)cc1)c1c(-c2ccc(O)cc2)sc2cc(O)ccc12` [Raloxifene hydrochloride], the half-maximal inhibitory concentration (IC50) under setting [2] was 5.61 µM.
`CC(C)C[C@H](NC(=O)[C@@H](COC(C)(C)C)NC(=O)[C@H](Cc1ccc(O)cc1)NC(=O)[C@H](CO)NC(=O)[C@H](Cc1c[nH]c2ccccc12)NC(=O)[C@H](Cc1cnc[nH]1)NC(=O)[C@@H]1CCC(=O)N1)C(=O)N[C@@H](CCCNC(=N)N)C(=O)N1CCC[C@H]1C(=O)NNC(N)=O` [Goserelin acetate]: under setting [1], half-maximal inhibition (IC50) was put at 12 µM.
For `CCCCCCCCCCCCCCCC(=O)O[C@@H]1[C@@H](O)[C@@H](O)[C@@H]([C@H](NC(=O)[C@@H]2C[C@@H](CCC)CN2C)[C@H](C)Cl)O[C@@H]1SC.Cl` [Clindamycin palmitate hydrochloride], the “SARS-CoV-2 3CLpro inhibitor grade in words” value is on record as “moderate”. The IC50 under setting [2] came to 33.2 µM.
For `NC(=O)C[S@@+]([O-])C(c1ccccc1)c1ccccc1` [Armodafinil], under setting [2], the IC50 turned out to be 17.9 µM.
Turning to `O=C(O)COCCN1CCN(C(c2ccccc2)c2ccc(Cl)cc2)CC1` (stereo not shown) [Cetirizine], the IC50 under setting [1] stood at 25.6 µM.
As to `CO[C@H]1C[C@@H]2CC[C@@H](C)[C@@](O)(O2)C(=O)C(=O)N2CCCC[C@H]2C(=O)O[C@H]([C@H](C)C[C@@H]2CC[C@@H](O)[C@H](OC)C2)CC(=O)[C@H](C)/C=C(\C)[C@@H](O)[C@@H](OC)C(=O)[C@H](C)C[C@H](C)/C=C/C=C/C=C/1C` [Sirolimus (Rapamycin), Sirolimus], under setting [2], the IC50 came to 22.3 µM.
With `C=C(c1ccc(C(=O)O)cc1)c1cc2c(cc1C)C(C)(C)CCC2(C)C` [Bexarotene], the “SARS-CoV-2 3CLpro inhibitor grade in words” value is “moderate”. The IC50 under setting [2] was determined as 26.5 µM.
As to `C=C(CC)C(=O)c1ccc(OCC(=O)O)c(Cl)c1Cl` [Ethacrynic acid], the IC50 under setting [2] was 1.11 µM.
Under setting [1], `COc1ccc2cc([C@H](C)C(=O)O)ccc2c1` [Naproxen] registered an IC50 of 3.45 µM.
On the same count and under the same terms, in the case of `CN(Cc1ccc(C(C)(C)C)cc1)Cc1cccc2ccccc12` [Butenafine hydrochloride] it was 5.4 µM.
For the molecule Colistin sulphate, the “SARS-CoV-2 3CLpro inhibitor grade in words” value is on record as “moderate”. For the same molecule, the IC50 under setting [2] stood at 23.2 µM.
Molecule `Oc1ncnc2[nH]ncc12` [Allopurinol] had an IC50 under setting [1] of 3.77 µM.
